According to ChEMBL document CHEMBL5550171, “Poly (ADP-ribose) polymerase (PARP) inhibitors as anticancer agents: An outlook on clinical progress, synthetic strategies, biological activity, and structure-activity relationship” (Eur J Med Chem, 2024):

Experiments:
[1] = test system: HCT-116; test: Cytotoxicity against human HCT-116 cells assessed as reduction in cell growth incubated for 96 hrs by MTT assay; type: functional, cell-based; settings: HCT-116, 96 h
[2] = target: Protein mono-ADP-ribosyltransferase PARP3 (Homo sapiens, UniProt Q9Y6F1); test: Inhibition of PARP3 (unknown origin)
[3] = target: T1, Poly [ADP-ribose] polymerase 1 (Homo sapiens, UniProt P09874); test: Inhibition of human recombinant PARP1 expressed in Escherichia coli BL21(DE3)
[4] = test system: MCF7; test: Cytotoxicity against human MCF7 cells assessed as reduction in cell growth incubated for 72 hrs by alamar blue reagent based analysis; type: functional; settings: MCF7, 72 h
[5] = test system: MDA-MB-436; test: Antiproliferative activity against human MDA-MB-436 cells; type: functional, cell-based
[6] = test system: MDA-MB-231; test: Cytotoxicity against human MDA-MB-231 cells assessed as reduction in cell growth incubated for 72 hrs by alamar blue reagent based analysis; type: functional; settings: MDA-MB-231, 72 h
[7] = test system: CAPAN-1; test: Antiproliferative activity against human CAPAN-1 cells assessed as reduction in cell viability incubated for 72 hrs by CCK-8 assay; type: functional, cell-based; settings: CAPAN-1, 72 h
[8] = test system: MDA-MB-436; test: Antiproliferative activity against human MDA-MB-436 cells assessed as reduction in cell viability incubated for 72 hrs by CCK-8 assay; type: functional, cell-based; settings: MDA-MB-436, 72 h
[9] = test system: HCC1937; test: Antiproliferative activity against human HCC1937 cells assessed as reduction in cell viability incubated for 72 hrs by CCK-8 assay; type: functional, cell-based; settings: HCC1937, 72 h
[10] = test system: K562; test: Antiproliferative activity against human K562 cells assessed as reduction in cell growth incubated for 72 hrs by CCK-8 assay; type: functional, cell-based; settings: K562, 72 h
[11] = test system: A549; test: Antiproliferative activity against human A549 cells assessed as reduction in cell growth incubated for 72 hrs by CCK-8 assay; type: functional, cell-based; settings: A549, 72 h
[12] = test system: MCF7; test: Antiproliferative activity against human MCF7 cells assessed as reduction in cell growth incubated for 72 hrs by CCK-8 assay; type: functional, cell-based; settings: MCF7, 72 h
[13] = test system: MDA-MB-231; test: Antiproliferative activity against human MDA-MB-231 cells assessed as reduction in cell growth incubated for 72 hrs by CCK-8 assay; type: functional, cell-based; settings: MDA-MB-231, 72 h
[14] = target: T1, Poly [ADP-ribose] polymerase 1; test: Inhibition of human PARP1
[15] = Cytotoxicity against human WI-38 cells assessed as reduction in cell viability incubated for 48 hrs by MTT assay; type: toxicity, cell-based
[16] = test system: MCF7; test: Antiproliferative activity against human MCF7 cells assessed as reduction in cell growth measured after 72 hrs by MTT assay; type: functional, cell-based; settings: MCF7, 72 h
[17] = target: T1, Poly [ADP-ribose] polymerase 1; test: Inhibition of PARP1 (unknown origin)
[18] = test system: CAPAN-1; test: Antiproliferative activity against human CAPAN-1 cells assessed as reduction in cell growth; type: functional, cell-based
[19] = test system: MDA-MB-436; test: Antiproliferative activity against human MDA-MB-436 cells assessed as reduction in cell viability; type: functional, cell-based
[20] = test system: MCF7; test: Anticancer activity against human MCF7 cells assessed as reduction in cell viability; type: functional, cell-based
[21] = Cytotoxicity against African green monkey Vero cells; type: toxicity, cell-based, Chlorocebus sabaeus
[22] = test system: Caco-2; test: Cytotoxicity against human Caco-2 cells assessed as inhibition of cell growth incubated for 72 hrs by CCK-8 assay; type: functional, cell-based; settings: Caco-2, 72 h
[23] = target: T1, Poly [ADP-ribose] polymerase 1; test: Inhibition of human recombinant PARP-1 by ELISA assay
[24] = test system: MDA-MB-436; test: Antiproliferative activity against human MDA-MB-436 cells assessed as reduction in cell viability incubated for 72 hrs by MTT assay; type: functional, cell-based; settings: MDA-MB-436, 72 h

T1 sequence (P09874 whole entry): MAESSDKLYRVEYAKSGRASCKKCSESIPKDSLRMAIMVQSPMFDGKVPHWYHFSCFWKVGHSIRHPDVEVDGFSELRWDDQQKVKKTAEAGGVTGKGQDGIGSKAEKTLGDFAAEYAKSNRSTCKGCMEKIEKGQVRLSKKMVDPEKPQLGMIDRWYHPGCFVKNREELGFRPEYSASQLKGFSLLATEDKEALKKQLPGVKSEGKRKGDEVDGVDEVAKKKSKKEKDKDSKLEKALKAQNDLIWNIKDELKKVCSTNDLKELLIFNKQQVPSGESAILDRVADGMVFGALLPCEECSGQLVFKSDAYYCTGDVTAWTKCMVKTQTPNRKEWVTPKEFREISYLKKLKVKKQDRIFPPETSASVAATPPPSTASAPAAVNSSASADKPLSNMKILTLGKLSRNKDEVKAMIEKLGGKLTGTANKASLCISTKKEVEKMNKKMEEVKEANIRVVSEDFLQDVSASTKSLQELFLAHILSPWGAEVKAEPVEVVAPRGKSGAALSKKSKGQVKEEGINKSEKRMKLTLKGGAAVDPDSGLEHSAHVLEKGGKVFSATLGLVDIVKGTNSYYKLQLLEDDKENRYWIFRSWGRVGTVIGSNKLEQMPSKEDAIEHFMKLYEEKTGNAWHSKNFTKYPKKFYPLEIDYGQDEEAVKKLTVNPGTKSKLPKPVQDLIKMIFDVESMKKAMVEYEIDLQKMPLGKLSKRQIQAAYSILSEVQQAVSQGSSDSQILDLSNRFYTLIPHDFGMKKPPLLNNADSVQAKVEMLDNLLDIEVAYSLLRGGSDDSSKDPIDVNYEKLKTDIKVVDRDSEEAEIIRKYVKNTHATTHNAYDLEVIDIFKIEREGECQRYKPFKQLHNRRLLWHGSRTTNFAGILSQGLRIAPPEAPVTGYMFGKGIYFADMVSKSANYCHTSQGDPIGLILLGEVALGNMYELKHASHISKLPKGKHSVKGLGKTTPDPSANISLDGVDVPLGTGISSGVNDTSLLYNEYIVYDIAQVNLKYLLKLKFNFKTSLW
Sequence of Protein mono-ADP-ribosyltransferase PARP3 (Q9Y6F1 whole entry): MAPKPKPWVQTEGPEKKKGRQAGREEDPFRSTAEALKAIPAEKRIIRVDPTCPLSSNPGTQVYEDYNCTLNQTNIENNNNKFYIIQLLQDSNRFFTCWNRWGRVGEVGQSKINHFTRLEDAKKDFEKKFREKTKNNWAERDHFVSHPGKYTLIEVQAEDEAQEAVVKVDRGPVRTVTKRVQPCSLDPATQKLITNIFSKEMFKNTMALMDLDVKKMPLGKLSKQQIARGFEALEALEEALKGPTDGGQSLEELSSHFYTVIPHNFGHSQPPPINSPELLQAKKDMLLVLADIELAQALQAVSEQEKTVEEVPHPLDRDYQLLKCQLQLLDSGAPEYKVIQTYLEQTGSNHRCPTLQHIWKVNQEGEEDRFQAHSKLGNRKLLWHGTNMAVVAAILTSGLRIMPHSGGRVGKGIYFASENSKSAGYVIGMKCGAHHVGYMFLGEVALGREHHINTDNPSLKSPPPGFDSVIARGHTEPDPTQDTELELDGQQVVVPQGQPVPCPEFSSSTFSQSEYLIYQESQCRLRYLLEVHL

Question: With O=c1[nH]c2c(c(=O)[nH]1)C(c1cccs1)c1[nH]c(=S)n(-c3ccccc3)c(=O)c1O2 (centres undefined) as the compound, how does the IC50 [1] read?
Answer: 46 µM

Question: For CCN(CC)CCC(=O)Nc1ccc(-c2nc3cc(Cl)ccc3o2)cc1, which IC50 [2] is on record?
Answer: 57 nM

Question: Which IC50 [3] does the source give for NC(=O)c1cccc2[nH]c(-c3ccc(C(=O)NC4CCN(C(=O)c5ccc(Cl)o5)C4)cc3)nc12 (centres undefined) here?
Answer: 8.65 nM

Question: What does the source list for O=C(c1cc(Cc2n[nH]c(=O)c3ccccc23)ccc1F)N1CCN(C(=O)C2CC2)CC1 [OLAPARIB]?
Answer: IC50 [4]: 3200 nM; IC50 [5]: 8.9 µM; IC50 [6]: 70.2 µM

Question: With Cc1ccoc1C(=O)N1CCN(C(=O)c2ccc(-c3nc4c(C(N)=O)cccc4[nH]3)cc2)C(C)C1 (centres undefined) as the compound, how does the IC50 [3] read?
Answer: 16.3 nM

Question: Which results are given for O=C(CCCc1ccc(N(CCCl)CCCl)cc1)N1CCN(C(=O)c2cc(Cc3n[nH]c(=O)c4ccccc34)ccc2F)CC1?
Answer: IC50 [7]: 86 nM; IC50 [8]: 13 nM; IC50 [9]: 180 nM; IC50 [10]: 10.4 µM; IC50 [11]: 1620 nM; IC50 [12]: 30.6 µM; IC50 [13]: 53.8 µM

Question: With Cc1cc(C)n(S(=O)(=O)c2ccc3[nH]c(=O)c(=O)[nH]c3c2)n1 as the compound, how does the IC50 [14] read?
Answer: 4.4 nM

Question: What about the IC50 [5] of the same compound?
Answer: 2.57 µM

Question: And the IC50 at 48 h [15]?
Answer: 81.7 µM

Question: For O=C(Cn1c(=S)n(-c2ccccc2)c(=O)c2ccccc21)Nc1cccc2ccccc12, which IC50 [16] is on record?
Answer: 10.6 µM

Question: What about the IC50 [17] of the same compound?
Answer: 140 nM

Question: Which results are given for O=C(NCCc1ccc(F)cc1)c1cc(Cc2n[nH]c(=O)c3ccccc23)ccc1F?
Answer: IC50 [18]: 7.5 µM; IC50 [17]: 3.24 nM

Question: Which results are given for O=C(Cn1c(=S)n(-c2ccccc2)c(=O)c2ccccc21)Nc1ccc2c(c1)C(=O)c1ccccc1C2?
Answer: IC50 [16]: 11.4 µM; IC50 [17]: 170 nM

Question: For COc1ccc(Cc2nnc(-c3cccc(-c4cccc(C=O)c4)c3)o2)cc1, which IC50 [4] is on record?
Answer: 1400 nM

Question: What about the IC50 [6] of the same compound?
Answer: 29.3 µM

Question: Which IC50 [19] does the source give for Cc1ccoc1C(=O)N1CCCN(C(=O)c2ccc(-c3nc4c(C(N)=O)cccc4[nH]3)cc2)CC1 here?
Answer: 25.4 µM

Question: Which IC50 [14] does the source give for Cc1c(C(=O)/C=C/c2cccc([N+](=O)[O-])c2)nnn1-c1ccc(Br)cc1 here?
Answer: 3.15 nM

Question: Which results are given for CCOC(=O)CO/N=C(\N)c1ccccc1?
Answer: IC50 [20]: 800 nM; IC50 [21]: 6.76 µM; IC50 [22]: 430 nM

Question: Which IC50 [23] does the source give for NC(=O)c1cccc2[nH]c(-c3ccc(C(=O)N4CCN(C(=O)c5ccc(Br)o5)CC4)cc3)nc12 here?
Answer: 23 nM

Question: What about the IC50 [24] of the same compound?
Answer: 43.6 µM

Question: For NC(=O)c1cccc2[nH]c(-c3ccc(C(=O)N4CCN(C(=O)c5ccc(Cl)o5)CC4)cc3)nc12, which IC50 [23] is on record?
Answer: 43 nM

Question: What about the IC50 [24] of the same compound?
Answer: 36.7 µM
